Laboratory results: publication PMC3914891, “Pentacyclic Nitrofurans with In Vivo Efficacy and Activity against Nonreplicating Mycobacterium tuberculosis” (PLoS ONE, 2014)
Converted amounts (≈) assume the structure as drawn. Where two headings read alike, the source gives them in different places.

Key:
M. ulcerans (ATCC 35840) = assay: MIC by agar proportion method: M. ulcerans; assay type: cell-based; settings: Mycobacterium ulcerans, ATCC35840, 672 h; agar proportion method, 4 weeks; read-out: Minimum Inhibitory Concentration, M. ulcerans
[1] = rats; IV 10 mg/kg and oral 100 mg/kg
M. tuberculosis Erdman = settings: for Log10CFU Reduction (SEM), lungs / Log10CFU Reduction (SEM), spleen: vs untreated
[2] = group 1: 9a 300 mg/kg QD oral, 9 days, in 0.5% methylcellulose in DI-H2O
[3] = group 2: 9a 300 mg/kg QD oral, 9 days, in 30% Captisol in DI-H2O
[4] = group 3: 9a 300 mg/kg QD oral, 9 days, in 10% Vitamin E TPGS in DI-H2O
[5] = group 4: 9a 300 mg/kg QD oral, 9 days, in 0.5% Tween 80 in DI-H2O
[6] = group 5: 9a 300 mg/kg QD oral, 9 days, in 20% cyclodextrin in DI-H2O
[7] = group 6: 9a 300 mg/kg QD oral, 9 days, in cold PEG (50:35:15 H2O:PEG300:PG)

For `O=[N+]([O-])c1ccc(C2=NOC(c3ccc(N4CCC(Oc5ccc(OC(F)(F)F)cc5)CC4)cc3)C2)o1` (centres unmarked) [Compound 9a, 3-(5-Nitrofuran-2-yl)-5-(4-(4-(4-(trifluoromethoxy)phenoxy)piperidin-1-yl)phenyl)-4,5-dihydroisoxazole], the MIC (M. ulcerans (ATCC 35840)) was 0.02 to 0.05 µg/mL (≈ 0.0387 to 0.0966 µM), the “Toxicity by intravenous and oral dosing” value [1] was “non-toxic” and the “reduction of bacterial load in lungs” value (M. tuberculosis Erdman; GKO mice, 300 mg/kg oral daily, 9 days, across formulations) was 91–97%. The “reduction in bacillary load, lungs and spleens” value (M. tuberculosis Erdman; GKO mice, after 9 days of treatment) was > 90%, the tolerability (M. tuberculosis Erdman; GKO mice, daily oral administration at 300 mg/kg, 9 days, each of six formulations) was “well tolerated” and the “Log10CFU Reduction (SEM), lungs” value (M. tuberculosis Erdman; [2]) was 1.06 (0.18) Log10CFU. For the same compound, the “Log10CFU Reduction (SEM), lungs” value (M. tuberculosis Erdman; [3]) was 1.30 (0.20) Log10CFU, the “Log10CFU Reduction (SEM), lungs” value (M. tuberculosis Erdman; [4]) was 1.47 (0.18) Log10CFU and the “Log10CFU Reduction (SEM), lungs” value (M. tuberculosis Erdman; [5]) was 1.38 (0.16) Log10CFU. For the same compound, the “Log10CFU Reduction (SEM), lungs” value (M. tuberculosis Erdman; [6]) was 1.08 (0.15) Log10CFU, the “Log10CFU Reduction (SEM), lungs” value (M. tuberculosis Erdman; [7]) was 1.10 (0.21) Log10CFU and the “Log10CFU (SEM), lungs” value (M. tuberculosis Erdman; [2]) was 7.01 (0.11) Log10CFU. The “Log10CFU (SEM), lungs” value (M. tuberculosis Erdman; [3]) was 6.77 (0.14) Log10CFU, the “Log10CFU (SEM), lungs” value (M. tuberculosis Erdman; [4]) was 6.61 (0.11) Log10CFU and the “Log10CFU (SEM), lungs” value (M. tuberculosis Erdman; [5]) was 6.69 (0.07) Log10CFU. For the same compound, the “Log10CFU (SEM), lungs” value (M. tuberculosis Erdman; [6]) was 6.99 (0.06) Log10CFU, the “Log10CFU (SEM), lungs” value (M. tuberculosis Erdman; [7]) was 6.99 (0.15) Log10CFU and the “Log10CFU Reduction (SEM), spleen” value (M. tuberculosis Erdman; [2]) was 0.95 (0.18) Log10CFU. For the same compound, the “Log10CFU Reduction (SEM), spleen” value (M. tuberculosis Erdman; [3]) was 1.48 (0.17) Log10CFU, the “Log10CFU Reduction (SEM), spleen” value (M. tuberculosis Erdman; [4]) was 1.77 (0.27) Log10CFU and the “Log10CFU Reduction (SEM), spleen” value (M. tuberculosis Erdman; [5]) was 1.17 (0.18) Log10CFU. For the same compound, the “Log10CFU Reduction (SEM), spleen” value (M. tuberculosis Erdman; [6]) was 1.44 (0.16) Log10CFU, the “Log10CFU Reduction (SEM), spleen” value (M. tuberculosis Erdman; [7]) was 1.03 (0.20) Log10CFU and the “Log10CFU (SEM), spleen” value (M. tuberculosis Erdman; [2]) was 6.25 (0.11) Log10CFU. For the same compound, the “Log10CFU (SEM), spleen” value (M. tuberculosis Erdman; [3]) was 5.72 (0.09) Log10CFU, the “Log10CFU (SEM), spleen” value (M. tuberculosis Erdman; [4]) was 5.43 (0.23) Log10CFU and the “Log10CFU (SEM), spleen” value (M. tuberculosis Erdman; [5]) was 6.03 (0.12) Log10CFU. For the same compound, the “Log10CFU (SEM), spleen” value (M. tuberculosis Erdman; [6]) was 5.76 (0.08) Log10CFU and the “Log10CFU (SEM), spleen” value (M. tuberculosis Erdman; [7]) was 6.17 (0.14) Log10CFU.
